Assay results: patent US20230255946A1 (Pure Tech LYT 100, Inc., priority 2020, published 2023)
Where two headings read alike, the source gives them in different places. Marks after values point to notes of the source that are not given here. Values belong to the compound of their own block, whether it stands above or below them.

Tests used:
[1] = Single dose, double-blinded, cross-over clinical trial of 801 mg LYT-100 vs pirfenidone, safety and pharmacokinetics; conditions: for Cmax / tmax: 5-hydroxymethyl metabolite after 801 mg of parent (LYT-110 after LYT-100, LYT-111 after pirfenidone); for Cmax / AUC0-t / AUC(inf) / Kel / t½: Mean (CV%); for tmax: Median (Range); for AUC0-t / AUC(inf) / Kel / t½: 5-hydroxymethyl metabolite after 801 mg of parent; for AUC(inf) / Kel / t½: n=23 LYT-110, n=19 LYT-111; for Metabolite/Parent Ratio, AUC0-∞, Mean / Metabolite/Parent Ratio, Cmax, Mean: MW-corrected; for metabolite as percent of parent in terms of AUC: single 801 mg dose
[2] = human, in vivo, 48 h
[3] = cited from earlier work
[4] = cited from earlier work; remark: listed apart in the source
[5] = Repeat dose oral toxicity and toxicokinetics study in Sprague Dawley rats
[6] = Phase 1 Multiple Ascending Dose (MAD) study Part 1, plasma pharmacokinetics
[7] = after 801 mg pirfenidone (parent LYT-101)
[8] = Lancaster et al. 2017, frequencies as high as
[9] = patients aged at least 80 years
[10] = single-center retrospective study of 351 patients
[11] = Day 1, Female, deuterated analyte / non-deuterated counterpart
[12] = after 801 mg LYT-100 (parent LYT-100)
[13] = across dose groups 100, 250, 500, 750 mg BID (FIG. 20)
[14] = across dose groups 100, 250, 500, 750, 1000 mg BID (FIG. 26)

SMILES: O=c1ccc(CO)cn1-c1ccccc1 [LYT-111, 5-hydroxymethyl-pirfenidone]
Cmax [1]: 17.1 (36%) ng/mL
tmax [1]: 2.50 (1.50 - 4.00) hr
AUC0-t [1]: 75.8 (42%) hr*ng/mL
AUC(inf) [1]: 89.7 (41%) ^b hr*ng/mL
Kel [1]: 0.367 (29%) ^b ⅟hr
t½ [1]: 2.04 (29%) ^b hr
Metabolite/Parent Ratio, AUC0-∞, Maximum [1, 7]: 0.4%
Metabolite/Parent Ratio, AUC0-∞, Median [1, 7]: 0.2%
Metabolite/Parent Ratio, AUC0-∞, Minimum [1, 7]: 0.1%
Metabolite/Parent Ratio, Cmax, Maximum [1, 7]: 0.4%
Metabolite/Parent Ratio, Cmax, Median [1, 7]: 0.2%
Metabolite/Parent Ratio, Cmax, Minimum [1, 7]: 0.1%
Metabolite/Parent Ratio, AUC0-∞, Mean [1, 7]: 0.2%
Metabolite/Parent Ratio, Cmax, Mean [1, 7]: 0.2%
metabolite as percent of parent in terms of AUC [1]: less than 2%

SMILES: Cc1ccc(=O)n(-c2ccc(O)cc2)c1 [LYT-104, 4′-hydroxy-pirfenidone]
Metabolite/Parent Ratio, Cmax, Maximum [1, 7]: 0.1%
Metabolite/Parent Ratio, Cmax, Median [1, 7]: 0.0%
Metabolite/Parent Ratio, Cmax, Minimum [1, 7]: 0.0%
Metabolite/Parent Ratio, Cmax, Mean [1, 7]: 0.0%
metabolite as percent of parent in terms of AUC [1]: less than 2%

SMILES: Cc1ccc(=O)n(-c2ccccc2)c1 [pirfenidone, 5-methyl-1-phenyl-1H-pyridin-2-one]
tolerability of single doses [2]: well tolerated
diarrhea, TEAE frequency [3, 8]: ≤ 27.6 per 100PEY
fatigue, TEAE frequency [3, 8]: ≤ 52.4 per 100PEY
nausea, TEAE frequency [3, 8]: ≤ 62.1 per 100 PEY
adverse drug reactions leading to permanent treatment discontinuation ([3]; PASSPORT study, Cottin et al. 2018): 28.7%
patients who had an adverse event ([3]; compassionate use program, Raghu & Thickett 2013): 44%
half-life ([3]; in humans): about 2.5 hours
ADR leading to discontinuation ([3]; patients aged <65 years): 7.5%
ADR leading to discontinuation [3, 9]: 20.9%
ADR leading to dose modification/interruption [3, 9]: 32.7%
ADR leading to dose modification/interruption ([3]; patients aged less than 65 years): 18.0%
elevations of AST and ALT levels to >3× ULN ([3]; phase III trials): 3.2%
loss of appetite [3, 10]: 17%
nausea/vomiting [3, 10]: 15%
reported AEs that were GI-related [3, 10]: 75%
AUC, % Change Fed vs Fasted ([4]; Pirfenidone @ 800 mg): -15%
Cmax, % Change Fed vs Fasted ([4]; Pirfenidone @ 800 mg): -49%
Tmax, % Change Fed vs Fasted ([4]; Pirfenidone @ 800 mg): +500%
increase in Tmax, fed vs fasted ([4]; pirfenidone): 500%

average ratio to the parent (M/P) by AUC ([6]; Cohort 4, 750 mg BID LYT-100): 0.0017 (0.0012-0.0022)
average ratio to the parent (M/P) by AUC ([6]; Cohort 6, 1000 mg BID LYT-100): 0.0037 (0.0030-0.0058)
AUC accumulation ratio (AUC96-108/AUC0-12) [6, 13]: ~ 1
AUC accumulation ratio (AUC96-108/AUC0-12) [6, 14]: ~ 1
SMILES: [2H]C([2H])([2H])c1ccc(=O)n(-c2ccc(O)cc2)c1 [LYT-103, d3-4′-hydroxy-pirfenidone]
similarity in exposure (AUC ratio), Group 4 (LYT-100 at 750 mg/kg) / Group 5 (SD-559 at 750 mg/kg) [5, 11]: 21.77
similarity in exposure (AUC ratio), Group 4 (LYT-100 at 750 mg/kg) / Group 5 (SD-559 at 750 mg/kg) ([5]; Day 1, Male): 34.51
similarity in exposure (AUC ratio), Group 4 (LYT-100 at 750 mg/kg) / Group 5 (SD-559 at 750 mg/kg) ([5]; Day 28, Female): 38.04
Metabolite/Parent Ratio, AUC0-∞, Maximum [1, 12]: 0.2%
Metabolite/Parent Ratio, AUC0-∞, Median [1, 12]: 0.1%
Metabolite/Parent Ratio, AUC0-∞, Minimum [1, 12]: 0.1%
Metabolite/Parent Ratio, Cmax, Maximum [1, 12]: 0.2%
Metabolite/Parent Ratio, Cmax, Median [1, 12]: 0.1%
Metabolite/Parent Ratio, Cmax, Minimum [1, 12]: 0.1%
Metabolite/Parent Ratio, AUC0-∞, Mean [1, 12]: 0.1%
Metabolite/Parent Ratio, Cmax, Mean [1, 12]: 0.1%
quantifiability of metabolite in human plasma ([1]; after LYT-100 801 mg): not quantifiable

average ratio to the parent (M/P) by AUC ([6]; Cohort 4, 750 mg BID LYT-100): 0.0025 (0.0020-0.0029)
average ratio to the parent (M/P) by AUC ([6]; Cohort 6, 1000 mg BID LYT-100): 0.0028 (0.0018-0.0038)
AUC accumulation ratio (AUC96-108/AUC0-12) [6, 13]: ~ 1
AUC accumulation ratio (AUC96-108/AUC0-12) [6, 14]: ~ 1
SMILES: [2H]C([2H])(O)c1ccc(=O)n(-c2ccccc2)c1 [LYT-110, d2-5-hydroxymethyl-pirfenidone]
Cmax in rat relative to human ([5]; 750 mg/kg LYT-100, Day 1, male rat vs human 801 mg): ~1825 fold
exposure (AUC) in rat relative to human ([5]; 750 mg/kg LYT-100, Day 1, male rats vs human 801 mg): about 1250 fold
similarity in exposure (AUC ratio), Group 4 (LYT-100 at 750 mg/kg) / Group 5 (SD-559 at 750 mg/kg) [5, 11]: 2.50
similarity in exposure (AUC ratio), Group 4 (LYT-100 at 750 mg/kg) / Group 5 (SD-559 at 750 mg/kg) ([5]; Day 1, Male): 2.22
similarity in exposure (AUC ratio), Group 4 (LYT-100 at 750 mg/kg) / Group 5 (SD-559 at 750 mg/kg) ([5]; Day 28, Female): 2.59
similarity in exposure (AUC ratio), Group 4 (LYT-100 at 750 mg/kg) / Group 5 (SD-559 at 750 mg/kg) ([5]; Day 28, Male): 2.54
exposure and Cmax vs. non-deuterated corresponding metabolite (SD-788) ([5]; SD-560 750 mg/kg vs SD-559 750 mg/kg, all days, both genders): almost twice
exposure in rats relative to humans ([5]; male rat after 28 days of daily dosing vs human): ~1600 fold
Cmax [1]: 20.6 (30%) ng/mL
tmax [1]: 2.50 (1.00 - 4.00) hr
AUC0-t [1]: 111 (32%) hr*ng/mL
AUC(inf) [1]: 124 (32%) ^a hr*ng/mL
Kel [1]: 0.294 (44%) ^a ⅟hr
t½ [1]: 2.76 (38%) ^a hr
Metabolite/Parent Ratio, AUC0-∞, Maximum [1, 12]: 0.4%
Metabolite/Parent Ratio, AUC0-∞, Median [1, 12]: 0.2%
Metabolite/Parent Ratio, AUC0-∞, Minimum [1, 12]: 0.1%
Metabolite/Parent Ratio, Cmax, Maximum [1, 12]: 0.4%
Metabolite/Parent Ratio, Cmax, Median [1, 12]: 0.2%
Metabolite/Parent Ratio, Cmax, Minimum [1, 12]: 0.1%
Metabolite/Parent Ratio, AUC0-∞, Mean [1, 12]: 0.2%
Metabolite/Parent Ratio, Cmax, Mean [1, 12]: 0.2%
